Experimental data as given in PubChem BioAssay AID1845197 (Molecular Pharmacology Branch, DTP, NCI, 2023).

System: 349418-098-R tumor spheroid viability
Assay: Anticancer human tumor 349418-098-R patient-derived lung adenocarcinoma cell line growth inhibition
Conditions: spheroids with HUVEC and MSC; for IC50: curve of first compound; for viability, T/C: stronger effect = lower value
In short: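 Complex spheroids of malignant cells with endothelial cells and mesenchymal stem cells; agents alone or combined, from near clinical Cmax (or 10 microM if unknown) down in half-log steps, 0.25% DMSO final.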
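Note: spheroids exposed to compound for 7 days before measurement.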
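Throughout, for viability, T/C: percent of vehicle control viability with 100% = DMSO-treated spheroids.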

For `COc1ccc([C@@H](O)c2cc(-c3ncnc4cc(N5CCOCC5)ccc34)c(F)cc2Cl)nn1` + Cn1nnc2c(C(N)=O)ncn2c1=O, the IC50 (second compound 1 µM) was 5610 nM, the IC50 (second compound 3.16 µM) was 5090 nM and the IC50 (second compound 10 µM) was 5170 nM. The IC50 (second compound 31.6 µM) was 4270 nM, the IC50 (second compound 100 µM) was 3610 nM and the viability, T/C (second compound 1 µM, first compound 0.0316 µM) was 97.6%. It also gave a viability, T/C (second compound 1 µM, first compound 0.1 µM) of 95.6%, a viability, T/C (second compound 1 µM, first compound 0.316 µM) of 101% and a viability, T/C (second compound 1 µM, first compound 1 µM) of 97.7%. The viability, T/C (second compound 1 µM, first compound 3.16 µM) was 73.3%, the viability, T/C (second compound 1 µM, first compound 10 µM) was 26.4% and the viability, T/C (second compound 3.16 µM, first compound 0.0316 µM) was 103%. It also gave a viability, T/C (second compound 3.16 µM, first compound 0.1 µM) of 99%, a viability, T/C (second compound 3.16 µM, first compound 0.316 µM) of 106% and a viability, T/C (second compound 3.16 µM, first compound 1 µM) of 102%. The viability, T/C (second compound 3.16 µM, first compound 3.16 µM) was 70.1%, the viability, T/C (second compound 3.16 µM, first compound 10 µM) was 21.3% and the viability, T/C (second compound 10 µM, first compound 0.0316 µM) was 99.8%. The viability, T/C (second compound 10 µM, first compound 0.1 µM) was 97.5%, the viability, T/C (second compound 10 µM, first compound 0.316 µM) was 103% and the viability, T/C (second compound 10 µM, first compound 1 µM) was 104%. For the same compound, the viability, T/C (second compound 10 µM, first compound 3.16 µM) was 66%, the viability, T/C (second compound 10 µM, first compound 10 µM) was 28.5% and the viability, T/C (second compound 31.6 µM, first compound 0.0316 µM) was 99.1%. The viability, T/C (second compound 31.6 µM, first compound 0.1 µM) was 104%, the viability, T/C (second compound 31.6 µM, first compound 0.316 µM) was 101% and the viability, T/C (second compound 31.6 µM, first compound 1 µM) was 106%. The viability, T/C (second compound 31.6 µM, first compound 3.16 µM) was 59.8%, the viability, T/C (second compound 31.6 µM, first compound 10 µM) was 22.2% and the viability, T/C (second compound 100 µM, first compound 0.0316 µM) was 102%. The viability, T/C (second compound 100 µM, first compound 0.1 µM) was 112%, the viability, T/C (second compound 100 µM, first compound 0.316 µM) was 107% and the viability, T/C (second compound 100 µM, first compound 1 µM) was 102%. It also gave a viability, T/C (second compound 100 µM, first compound 3.16 µM) of 53.4% and a viability, T/C (second compound 100 µM, first compound 10 µM) of 24.1%.

`CNCc1ccc(-c2cc(-c3nc(-c4ccc(S(=O)(=O)C(C)C)cc4)cnc3N)on2)cc1` + Cn1nnc2c(C(N)=O)ncn2c1=O was tested, and the IC50 (second compound 1 µM) was 275 nM, the IC50 (second compound 3.16 µM) was 382 nM and the IC50 (second compound 10 µM) was 401 nM. For the same compound, the IC50 (second compound 31.6 µM) was 260 nM, the IC50 (second compound 100 µM) was 214 nM and the viability, T/C (second compound 1 µM, first compound 0.00949 µM) was 103%. For the same compound, the viability, T/C (second compound 1 µM, first compound 0.03 µM) was 100%, the viability, T/C (second compound 1 µM, first compound 0.0949 µM) was 99.6% and the viability, T/C (second compound 1 µM, first compound 0.3 µM) was 45.4%. It also gave a viability, T/C (second compound 1 µM, first compound 0.949 µM) of 10.3%, a viability, T/C (second compound 1 µM, first compound 3 µM) of 1.84% and a viability, T/C (second compound 3.16 µM, first compound 0.00949 µM) of 108%. The viability, T/C (second compound 3.16 µM, first compound 0.03 µM) was 101%, the viability, T/C (second compound 3.16 µM, first compound 0.0949 µM) was 102% and the viability, T/C (second compound 3.16 µM, first compound 0.3 µM) was 61.2%. For the same compound, the viability, T/C (second compound 3.16 µM, first compound 0.949 µM) was 7.59%, the viability, T/C (second compound 3.16 µM, first compound 3 µM) was 1.85% and the viability, T/C (second compound 10 µM, first compound 0.00949 µM) was 104%. It also gave a viability, T/C (second compound 10 µM, first compound 0.03 µM) of 103%, a viability, T/C (second compound 10 µM, first compound 0.0949 µM) of 97.9% and a viability, T/C (second compound 10 µM, first compound 0.3 µM) of 64.5%. It also gave a viability, T/C (second compound 10 µM, first compound 0.949 µM) of 7.44%, a viability, T/C (second compound 10 µM, first compound 3 µM) of 1.34% and a viability, T/C (second compound 31.6 µM, first compound 0.00949 µM) of 104%. The viability, T/C (second compound 31.6 µM, first compound 0.03 µM) was 102%, the viability, T/C (second compound 31.6 µM, first compound 0.0949 µM) was 99.9% and the viability, T/C (second compound 31.6 µM, first compound 0.3 µM) was 42.7%. It also gave a viability, T/C (second compound 31.6 µM, first compound 0.949 µM) of 5.84%, a viability, T/C (second compound 31.6 µM, first compound 3 µM) of 0.96% and a viability, T/C (second compound 100 µM, first compound 0.00949 µM) of 104%. For the same compound, the viability, T/C (second compound 100 µM, first compound 0.03 µM) was 106%, the viability, T/C (second compound 100 µM, first compound 0.0949 µM) was 105% and the viability, T/C (second compound 100 µM, first compound 0.3 µM) was 27.1%. The viability, T/C (second compound 100 µM, first compound 0.949 µM) was 4.72% and the viability, T/C (second compound 100 µM, first compound 3 µM) was 0.67%.
